# From patent US8546608B2, “Proteasome inhibitors and methods of using the same” (Cephalon, Inc., priority 2003, dated 2013)
# Key:
# [1] = target: T1, proteasome in Molt-4 cells (human leukemia) (Homo sapiens, UniProt P20618+P28074); format: cell-based; conditions: assay of Example E, inhibition of MOLT4; read-out: MOLT4 (EC50)
# T1 sequence (P28074 60-263): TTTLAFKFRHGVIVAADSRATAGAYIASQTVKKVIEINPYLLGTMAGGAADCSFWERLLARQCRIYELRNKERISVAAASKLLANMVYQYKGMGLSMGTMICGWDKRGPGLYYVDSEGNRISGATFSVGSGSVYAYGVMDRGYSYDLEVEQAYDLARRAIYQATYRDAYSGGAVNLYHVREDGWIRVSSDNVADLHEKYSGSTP
# T1 sequence (P20618 29-241): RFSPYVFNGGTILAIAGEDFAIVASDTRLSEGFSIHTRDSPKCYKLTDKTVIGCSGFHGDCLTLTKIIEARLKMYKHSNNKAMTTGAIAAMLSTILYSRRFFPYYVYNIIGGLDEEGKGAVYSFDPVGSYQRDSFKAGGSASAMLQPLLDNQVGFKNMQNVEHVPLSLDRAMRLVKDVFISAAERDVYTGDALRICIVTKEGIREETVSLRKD
# In short: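 Intact Molt-4 cells (6×10^6 cells/mL) in HEPES-buffered saline were preincubated with inhibitor 15 min at 37 °C, then given cell-permeable MeOSuc-FLF-AFC at 25 μM final.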
# [2] = target: T2, 20S Human Erythrocyte Proteasome (HEP) (Homo sapiens, UniProt P20618+P28074); test: Chymotrypsin-like activity of 20S Human Erythrocyte Proteasome (HEP), IC50 determination; format: biochemical; conditions: assay of Example C, inhibition of HEP
# T2 construct: 20S Human Erythrocyte Proteasome (HEP), purchased from Immatics Biotechnologies Inc; purchased Immatics Biotechnologies Inc., Tübingen, Germany; host or cells: human erythrocytes (natural source)
# In short: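 20S proteasome at 0.2 μg/mL (about 0.6 nM catalytic sites) in 20 mM Tris with 0.04% SDS, preincubated 15 min at 37° C with inhibitor before Suc-LLVY-AMC (100 μM final). AMC fluorescence read in the linear range; triplicates, IC50 from concentration series.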
EC50 [1],IC50 [2],Compound
200 to 2000 nM,< 10 nM,"CC(C)C[C@H](NC(=O)[C@H](CCCNC(=N)N[N+](=O)[O-])NC(=O)CCCCCCCc1ccccc1)B(O)O [E.2.46, Boronic acid, [(1R)-1-[[(2S)-5-[[imino(nitroamino)methyl]amino]-2-[(8-phenyloctanoyl)amino]-1-oxopentyl]amino]-3-methylbutyl]]"
2000 to 10000 nM,< 10 nM,"CC(C)C[C@H](NC(=O)[C@H](CCCNC(=N)N[N+](=O)[O-])NC(=O)Cc1ccc(Br)cc1)B(O)O [E.2.38, Boronic acid, [(1R)-1-[[(2S)-5-[[imino(nitroamino)methyl]amino]-2-[[2-(4-bromophenyl)acetyl]amino]-1-oxopentyl]amino]-3-methylbutyl]]"
< 200 nM,< 10 nM,"CC(C)C[C@H](NC(=O)[C@H](CCCNC(=N)N[N+](=O)[O-])NC(=O)c1cccc2ccccc12)B1O[C@@H]2C[C@@H]3C[C@@H](C3(C)C)[C@]2(C)O1 [D.3.2, Naphthalen-1-carboxamide,N-[(1S)-1-[[[(1R)-1-[(3aS,4S,6S,7aR)-hexahydro-3a,5,5-trimethyl-4,6-methano-1,3,2-benzodioxaborol-2-yl]-3-methylbutyl]amino]carbonyl]-4-[[imino(nitroamino)methyl]amino]butyl]]"
< 200 nM,< 10 nM,"CC(C)C[C@H](NC(=O)[C@H](CCCNC(=N)N[N+](=O)[O-])NC(=O)CCCCc1ccccc1)B1O[C@@H]2C[C@@H]3C[C@@H](C3(C)C)[C@]2(C)O1 [D.3.132, 5-Phenylpentanamide,N-[(1S)-1-[[[(1R)-1-[(3aS,4S,6S,7aR)-hexahydro-3a,5,5-trimethyl-4,6-methano-1,3,2-benzodioxaborol-2-yl]-3-methylbutyl]amino]carbonyl]-4-[[imino(nitroamino)methyl]amino]butyl]]"
200 to 2000 nM,< 10 nM,"CC(=O)SCCCCCC(=O)N[C@@H](CCCNC(=N)N[N+](=O)[O-])C(=O)N[C@@H](CC(C)C)B1O[C@@H]2C[C@@H]3C[C@@H](C3(C)C)[C@]2(C)O1 [D.3.161, 6-(Acetylsulfanyl)hexanamide,N-[(1S)-1-[[[(1R)-1-[(3aS,4S,6S,7aR)-hexahydro-3a,5,5-trimethyl-4,6-methano-1,3,2-benzodioxaborol-2-yl]-3-methylbutyl]amino]carbonyl]-4-[[imino(nitroamino)methyl]amino]butyl]]"
2000 to 10000 nM,< 100 nM,COCCOCCOCC(=O)N[C@@H](CCCNC(=N)N[N+](=O)[O-])C(=O)N[C@@H](CC(C)C)B1O[C@@H]2C[C@@H]3C[C@@H](C3(C)C)[C@]2(C)O1 [D.1.7]
< 200 nM,< 10 nM,"CC(C)C[C@H](NC(=O)[C@H](CCCNC(=N)N[N+](=O)[O-])NC(=O)COc1ccc2ccccc2c1)B1O[C@@H]2C[C@@H]3C[C@@H](C3(C)C)[C@]2(C)O1 [D.3.27, 2-[(Naphthalen-2-yl)oxy]acetamide,N-[(1S)-1-[[[(1R)-1-[(3aS,4S,6S,7aR)-hexahydro-3a,5,5-trimethyl-4,6-methano-1,3,2-benzodioxaborol-2-yl]-3-methylbutyl]amino]carbonyl]-4-[[imino(nitroamino)methyl]amino]butyl]]"
< 200 nM,< 10 nM,"CCCCc1ccc(C(=O)N[C@@H](CNC(=O)c2cccnc2)C(=O)N[C@@H](CC(C)C)B(O)O)cc1 [E.5.18, Boronic acid, [(1R)-1-[[(2S)-3-(nicotinoylamino)-2-[(4-butylbenzoylamino)]-1-oxopropyl]amino]-3-methylbutyl]]"
< 200 nM,< 10 nM,"CCCCCCCCCC(=O)N[C@H](C(=O)N[C@@H](CC(C)C)B(O)O)[C@@H](C)O [E.1.17, Boronic acid, [(1R)-1-[[(2S,3R)-3-hydroxy-2-[(decanoyl)amino]-1-oxobutyl]amino]-3-methylbutyl]]"
< 200 nM,< 10 nM,"CCCCc1ccc(C(=O)N[C@@H](CNC(=O)c2cccnc2)C(=O)N[C@@H](CC(C)C)B2O[C@@H]3C[C@@H]4C[C@@H](C4(C)C)[C@]3(C)O2)cc1 [D.24.15, 4-butylbenzamide, N-[(1S)-1-[[[(1R)-1-[(3aS,4S,6S,7aR)-hexahydro-3a,5,5-trimethyl-4,6-methano-1,3,2-benzodioxaborol-2-yl]-3-methylbutyl]amino]carbonyl]-2-(nicotinonylamino)ethyl]-]"
2000 to 10000 nM,< 10 nM,"COc1ccc(CCCC(=O)N[C@@H](CCCNC(=N)N[N+](=O)[O-])C(=O)N[C@@H](CC(C)C)B(O)O)cc1 [E.2.61, Boronic acid, [(1R)-1-[[(2S)-5-[[imino(nitroamino)methyl]amino]-2-[[4-(4-methoxyphenyl)-butanoyl]amino]-1-oxopentyl]amino]-3-methylbutyl]]"
200 to 2000 nM,< 10 nM,"CC(C)C[C@H](NC(=O)[C@H](CCCNC(=N)N[N+](=O)[O-])NC(=O)COc1ccc(C(C)C)cc1)B(O)O [D.7.5, Boronic acid, [(1R)-1-[[(2S)-5-[[imino(nitroamino)methyl]amino]-2-[(2-(4-isopropylphenoxy)acetyl)amino]-1-oxopentyl]amino]-3-methylbutyl]]"
< 200 nM,< 10 nM,"CC(C)C[C@H](NC(=O)[C@H](CCCNC(=N)N[N+](=O)[O-])NC(=O)CCCc1cccs1)B1O[C@@H]2C[C@@H]3C[C@@H](C3(C)C)[C@]2(C)O1 [D.3.126, 4-(Thiophen-2-yl)butanamide,N-[(1S)-1-[[[(1R)-1-[(3aS,4S,6S,7aR)-hexahydro-3a,5,5-trimethyl-4,6-methano-1,3,2-benzodioxaborol-2-yl]-3-methylbutyl]amino]carbonyl]-4-[[imino(nitroamino)methyl]amino]butyl]]"
< 200 nM,< 10 nM,"CCCCCCCCCC(=O)N[C@H](C(=O)N[C@@H](CC(C)C)B1O[C@@H]2C[C@@H]3C[C@@H](C3(C)C)[C@]2(C)O1)[C@@H](C)O [D.8, Decanamide, N-[(1S,2R)-1-[[[(1R)-1-[(3aS,4S,6S,7aR)-hexahydro-3a,5,5-trimethyl-4,6-methano-1,3,2-benzodioxaborol-2-yl]-3-methylbutyl]amino]carbonyl]-2-hydroxypropyl]-]"
> 10000 nM,< 10 nM,"CCC(C)C(=O)N[C@@H](CCCNC(=N)N[N+](=O)[O-])C(=O)N[C@@H](CC(C)C)B(O)O (mixture of isomers) [E.2.35, Boronic acid, [(1R)-1-[[(2S)-5-[[immo(nitroamino)methyl]amino]-2-[((RS)-2-methylbutanoyl)amino]-1-oxopentyl]amino]-3-methylbutyl]]"
< 200 nM,< 10 nM,"CCCCc1ccc(C(=O)N[C@@H](CNS(=O)(=O)c2ccc(F)cc2)C(=O)N[C@@H](CC(C)C)B2O[C@@H]3C[C@@H]4C[C@@H](C4(C)C)[C@]3(C)O2)cc1 [D.19, 4-Butylbenzamide, N-[(1S)-1-[[[(1R)-1-[(3aS,4S,6S,7aR)-hexahydro-3a,5,5-trimethyl-4,6-methano-1,3,2-benzodioxaborol-2-yl]-3-methylbutyl]amino]carbonyl]-2-[4-fluoro-benzenesulfonammide]ethyl]-]"
> 10000 nM,< 10 nM,"CC(C)C[C@H](NC(=O)[C@H](CCCNC(=N)N[N+](=O)[O-])NC(=O)CC1CC2CCC1C2)B(O)O (stereo partly drawn) [E.2.41, Boronic acid, [(1R)-1-[[(2S)-5-[[imino(nitroamino)methyl]amino]-2-[[2-(bicyclo[2.2.1]hept-2-yl)acetyl]amino]-1-oxopentyl]amino]-3-methylbutyl]]"
2000 to 10000 nM,< 10 nM,CCS(=O)(=O)NCCCCCCCC(=O)N[C@@H](CCCNC(=N)N[N+](=O)[O-])C(=O)N[C@@H](CC(C)C)B1O[C@@H]2C[C@@H]3C[C@@H](C3(C)C)[C@]2(C)O1 [D.1.13]
> 10000 nM,< 100 nM,"CCS(=O)(=O)NCCCCCC(=O)N[C@@H](CCCNC(=N)N[N+](=O)[O-])C(=O)N[C@@H](CC(C)C)B1O[C@@H]2C[C@@H]3C[C@@H](C3(C)C)[C@]2(C)O1 [D.1.14, 6-(Ethanesulfonylamino)hexanamide,N-[(1S)-1-[[[(1R)-1-[(3aS,4S,6S,7aR)-hexahydro-3a,5,5-trimethyl-4,6-methano-1,3,2-benzodioxaborol-2-yl]-3-methylbutyl]amino]carbonyl]-4-[[imino(nitroamino)methyl]amino]butyl]]"
< 200 nM,< 10 nM,"CC(C)C[C@H](NC(=O)[C@H](CCCNC(=N)N[N+](=O)[O-])NC(=O)CS(=O)(=O)c1ccccc1)B1O[C@@H]2C[C@@H]3C[C@@H](C3(C)C)[C@]2(C)O1 [D.3.185, 2-(Benzenesulfonyl)acetamide,N-[(1S)-1-[[[(1R)-1-[(3aS,4S,6S,7aR)-hexahydro-3a,5,5-trimethyl-4,6-methano-1,3,2-benzodioxaborol-2-yl]-3-methylbutyl]amino]carbonyl]-4-[[imino(nitroamino)methyl]amino]butyl]]"
2000 to 10000 nM,< 10 nM,"CC(C)C[C@H](NC(=O)[C@H](CCCNC(=N)N[N+](=O)[O-])NC(=O)/C=C/c1ccc2ccccc2c1)B(O)O [D.7.36, Boronic acid, [(1R)-1-[[(2S)-5-[[imino(nitroamino)methyl]amino]-2-[[(E)-3-(naphthalen-2-yl)prop-2-enoyl]amino]-1-oxopentyl]amino]-3-methylbutyl]]"
